Data as given in patent publication US5631401A, “Inhibitors of protein farnesyltransferase and squalene synthase” (Abbott Laboratories, priority 1995, dated 1997).

What was measured:
[1] = molecular target: T1, Rat brain protein farnesyltransferase (Rattus norvegicus, UniProt Q02293+Q04631); experiment: In vitro inhibition of protein farnesyltransferase (biotin-lamin substrate, scintillation proximity assay); assay type: biochemical; details: for inhibition at 10 µM: compared to uninhibited control; for inhibition at 1 µM: 1 μM (footnote *), read-out: % Inhibition at 1 μM (protein farnesyltransferase, values marked *)
T1 construct: The enzyme was purified according to Reiss, Y., et al., Cell, 62: 81-88 (1990), utilizing steps one through three; from tissue; host or cells: rat brain
Method in brief: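 Protein farnesyltransferase isolated from rat brain was purified following steps one through three of the Reiss et al. method, giving a specific activity of about 10 nmol substrate farnesylated/mg enzyme/hour. Activity was measured with a commercial Amersham scintillation proximity assay kit, using biotin-lamin as the acceptor substrate and radioactive farnesyl diphosphate as the donor.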

[2] = molecular target: T2, Rat liver microsomal squalene synthase (Rattus norvegicus, UniProt Q02769); experiment: In vitro inhibition of squalene synthase (rat liver microsomes, 3H-farnesyl diphosphate); assay type: biochemical; details: 1 μM; compared to controls with no test compound
T2 construct: Rat liver microsomes, the source of enzyme, were prepared; from tissue; host or cells: rat liver microsomes
T2 sequence (Q02769 1-416): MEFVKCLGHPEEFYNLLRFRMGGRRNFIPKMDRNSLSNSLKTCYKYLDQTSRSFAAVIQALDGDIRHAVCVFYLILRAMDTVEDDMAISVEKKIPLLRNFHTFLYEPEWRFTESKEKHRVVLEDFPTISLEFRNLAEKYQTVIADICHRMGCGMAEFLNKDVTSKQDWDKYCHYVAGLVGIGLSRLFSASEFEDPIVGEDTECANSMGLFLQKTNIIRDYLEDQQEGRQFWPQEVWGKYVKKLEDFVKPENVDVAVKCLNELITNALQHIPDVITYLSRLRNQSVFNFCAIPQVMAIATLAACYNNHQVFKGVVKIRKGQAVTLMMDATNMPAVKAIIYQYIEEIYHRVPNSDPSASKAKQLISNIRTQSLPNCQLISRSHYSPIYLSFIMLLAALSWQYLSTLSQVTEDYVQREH

SMILES	inhibition at 10 µM [1]	inhibition at 1 µM [2]	inhibition at 1 µM [1]
O=C(O)[C@H]1[C@H](C(=O)N(Cc2ccc(Oc3ccccc3)cc2)C2CCCCC2)[C@H](C(=O)O)[C@H]1C(=O)N(Cc1ccc(Oc2ccccc2)cc1)C1CCCCC1 [Example 98, (1α,2β,3β,4α)-1,3-Di[N-cyclohexyl-N-(4-phenoxybenzyl)aminocarbonyl]cyclobutane-2,4-dicarboxylic acid]	31%	55%	–
O=C(O)[C@H]1[C@H](C(=O)N(Cc2ccc(Oc3ccccc3)cc2)C2CCC2)[C@H](C(=O)O)[C@H]1C(=O)N(Cc1ccc(Oc2ccccc2)cc1)C1CCC1 [Example 99, (1α,2β,3β,4α)-1,3-Di[N-cyclobutyl-N-(4-phenoxybenzyl)aminocarbonyl]cyclobutane-2,4-dicarboxylic acid]	52%	20%	–
O=C(O)[C@H]1[C@H](C(=O)N(Cc2ccc(Oc3ccccc3)cc2)CC2CCC2)[C@H](C(=O)O)[C@H]1C(=O)N(Cc1ccc(Oc2ccccc2)cc1)CC1CCC1 [Example 100, (1α,2β,3β,4α)-1,3-Di[N-cyclobutylmethyl-N-(4-phenoxybenzyl)aminocarbonyl]cyclobutane-2,4-dicarboxylic acid]	–	46%	21%
O=C(O)[C@H]1[C@H](C(=O)N(Cc2ccc(Oc3ccccc3)cc2)CC2CCCC2)[C@H](C(=O)O)[C@H]1C(=O)N(Cc1ccc(Oc2ccccc2)cc1)CC1CCCC1 [Example 101, (1α,2β,3β,4α)-1,3-Di[N-cyclopentylmethyl-N-(4-phenoxybenzyl)aminocarbonyl]cyclobutane-2,4-dicarboxylic acid]	–	34%	26%
CC[C@@H](C)N(Cc1ccc(Oc2ccccc2)cc1)C(=O)[C@H]1[C@H](C(=O)O)[C@H](C(=O)N(Cc2ccc(Oc3ccccc3)cc2)[C@H](C)CC)[C@H]1C(=O)O [Example 102, (1α,2β,3β,4α)-1,3-Di[N-((2R)-Sec-butyl)-N-(4-phenoxybenzyl)aminocarbonyl]cyclobutane-2,4-dicarboxylic acid]	37%	48%	–
